Legend:
[1] = Stability in buffered water at various pH and temperatures (HPLC); assay type: physicochemical
Experimental: Biocides were added to buffer solutions and stability was tested at 22° and 50° C. using HPLC to measure biocide concentration at 0 time, 21 days, 43 days, and 88-90 days. Biocide stability was determined in the following buffer solutions: pH2, 0.01M HCl; pH6, 0.1M KH2PO4; pH8, 0.025M borate; pH10, 0.025M borate; pH12, 0.05M Na2HPO4. Biocide concentrations tested were 100 ppm MI, 200 ppm BIT, 44 ppm CMI.

[2] = test system: natural, resident populations of Mycobacterium; assay: Eradication of mycobacteria in naturally contaminated in-use metalworking fluids; assay type: cell-based
Experimental: A comparative study was conducted evaluating six metalworking fluid biocides versus natural, resident populations of Mycobacterium from six in-use metalworking fluids. CMIT/MIT, CMIT/MIT/MCC, MIT, BIT, triazine, and PCMC microbicides were tested under controlled laboratory conditions to determine their efficacy at the maximum manufacturer's recommended dose rate (Table 2). The metalworking fluids were known to contain high levels of mycobacteria prior to dosing with biocides. Samples were then dosed with biocides, incubated with agitation at room temperature and viable mycobacteria counts determined after 48 hours by plating onto Middlebrook 7H10 medium, with Tween 80, glycerin, cyclohexamide, chloramphenicol, and gentamycin to suppress the growth of unwanted microorganisms.
The six metalworking fluid samples containing mycobacteria study from Example 7, were also tested using the same biocides with dosing at 50% of the maximum manufacturer's recommended rate (Table 2) under the same conditions. These metalworking fluids were known to contain high levels of mycobacteria prior to dosing with biocides. Samples were then dosed with biocides, incubated with agitation at room temperature and viable mycobacteria counts determined after 48 hours by plating onto Middlebrook 7H10 medium, with Tween 80, glycerin, cyclohexamide, chloramphenicol, and gentamycin to suppress the growth of unwanted microorganisms.

[3] = Stability with oxidizing and reducing agents at pH 7 and pH 9 (HPLC); assay type: physicochemical
Experimental: Oxidizing agents (2 mM) included hydrogen peroxide (H2O2; 68 ppm), t-butyl hydrogen peroxide (t-BHP; 180 ppm), and potassium persulfate (K2O8S2; 540 ppm). Reducing agents (2 mM) included iso-ascorbic acid (IAA; 352 ppm) and sodium bisulfite (NaHSO3; 208 ppm). Biocides were tested at 1 mM concentrations, representing 115 ppm MI and […].
The pH 7.0 buffer contained 0.00426% monopotassium phosphate plus 0.019% magnesium chloride hexahydrate. The pH 9.0 buffer contained 0.0046 M hydrochloric acid plus 0.013 M borax. Stock solutions of the redox agents were prepared and added to aliquots of each buffer to give 2 mM concentrations. The biocides were then added to give 1 mM concentrations. The samples were stored at 25° C. and analyzed for biocide level by HPLC at 0, 2 and 8 days.

[4] = test system: Mycobacterium immunogenum (ATCC 700505); assay: MBC test, transfer from MIC plates to fresh media; assay type: cell-based; settings: M. immunogenum, no survivors after 2 days in fresh media
Experimental: (§1) Bacterial strains tested included Mycobacterium chelonae (ATCC 14472) and Mycobacterium immunogenum (ATCC 700505). Mycobacterial cultures were grown overnight at 30° C. (M. immunogenum) or 37° C. (M. chelonae), in a rotary shaking bath in Middlebrook […] with Middlebrook enrichment. A 1:20 dilution of the overnight culture was made into the appropriate test media and inoculated to give a final concentration of 10^6 to 10^7 CFU/ml.
(§2) MBC tests were conducted by transferring samples from the MIC test samples into fresh media and observing for growth of the culture. Growth was determined as above. In this test using Biomek 2000 Workstation, 10 μl samples taken from the 96-well MIC plates were placed in […] of fresh growth media to determine the number of surviving organisms for the same gradient of biocide concentrations. These plates were incubated and read in the same fashion as the MIC plates.

[5] = test system: Mycobacterium chelonae (ATCC 14472); assay: MBC test, transfer from MIC plates to fresh media; assay type: cell-based; settings: M. chelonae, no survivors after 2 days in fresh media
Experimental: as §1, §2

[6] = K-persulfate 2 mM, pH 7, 25° C.
[7] = K-persulfate 2 mM, pH 9, 25° C.
[8] = Na bisulfite 2 mM, pH 7, 25° C.
[9] = Na bisulfite 2 mM, pH 9, 25° C.

Compound: Cn1sccc1=O [MI, 2-methyl-4-isothiazolin-3-one]
- Percent Remaining at: pH 2 ([1]; 22° C., day 0): 100%
- Percent Remaining at: pH 6 ([1]; 22° C., day 0): 100%
- Percent Remaining at: pH 8 ([1]; 22° C., day 0): 100%
- Percent Remaining at: pH 10 ([1]; 22° C., day 0): 100%
- Percent Remaining at: pH 12 ([1]; 22° C., day 0): 100%
- Percent Remaining at: pH 2 ([1]; 22° C., day 21): 104%
- Percent Remaining at: pH 6 ([1]; 22° C., day 21): 100%
- Percent Remaining at: pH 8 ([1]; 22° C., day 21): 100%
- Percent Remaining at: pH 10 ([1]; 22° C., day 21): 100%
- Percent Remaining at: pH 12 ([1]; 22° C., day 21): 98%
- Percent Remaining at: pH 2 ([1]; 22° C., day 43): 98%
- Percent Remaining at: pH 6 ([1]; 22° C., day 43): 94%
- Percent Remaining at: pH 8 ([1]; 22° C., day 43): 95%
- Percent Remaining at: pH 10 ([1]; 22° C., day 43): 89%
- Percent Remaining at: pH 12 ([1]; 22° C., day 43): 93%
- Percent Remaining at: pH 2 ([1]; 22° C., day 88): 100%
- Percent Remaining at: pH 6 ([1]; 22° C., day 88): 100%
- Percent Remaining at: pH 8 ([1]; 22° C., day 88): 100%
- Percent Remaining at: pH 10 ([1]; 22° C., day 88): 100%
- Percent Remaining at: pH 12 ([1]; 22° C., day 88): 100%
- Percent Remaining at: pH 2 ([1]; 50° C., day 0): 100%
- Percent Remaining at: pH 6 ([1]; 50° C., day 0): 100%
- Percent Remaining at: pH 8 ([1]; 50° C., day 0): 100%
- Percent Remaining at: pH 10 ([1]; 50° C., day 0): 100%
- Percent Remaining at: pH 12 ([1]; 50° C., day 0): 100%
- Percent Remaining at: pH 2 ([1]; 50° C., day 21): 100%
- Percent Remaining at: pH 6 ([1]; 50° C., day 21): 98%
- Percent Remaining at: pH 8 ([1]; 50° C., day 21): 100%
- Percent Remaining at: pH 10 ([1]; 50° C., day 21): 98%
- Percent Remaining at: pH 12 ([1]; 50° C., day 21): 90%
- Percent Remaining at: pH 2 ([1]; 50° C., day 43): 97%
- Percent Remaining at: pH 6 ([1]; 50° C., day 43): 93%
- Percent Remaining at: pH 8 ([1]; 50° C., day 43): 95%
- Percent Remaining at: pH 10 ([1]; 50° C., day 43): 93%
- Percent Remaining at: pH 12 ([1]; 50° C., day 43): 78%
- Percent Remaining at: pH 2 ([1]; 50° C., day 90): 100%
- Percent Remaining at: pH 6 ([1]; 50° C., day 90): 100%
- Percent Remaining at: pH 8 ([1]; 50° C., day 90): 100%
- Percent Remaining at: pH 10 ([1]; 50° C., day 90): 100%
- Percent Remaining at: pH 12 ([1]; 50° C., day 90): 76%
- Log Reduction in Mycobacterial Counts versus Control (no biocide) ([2]; Fluid 1, 48 hours, 50% of recommended maximum dose): 3.48 log
- Log Reduction in Mycobacterial Counts versus Control (no biocide) ([2]; Fluid 1, 48 hours, 100% of recommended maximum dose): 5.88 log
- Log Reduction in Mycobacterial Counts versus Control (no biocide) ([2]; Fluid 2, 48 hours, 50% of recommended maximum dose): 3.80 log
- Log Reduction in Mycobacterial Counts versus Control (no biocide) ([2]; Fluid 2, 48 hours, 100% of recommended maximum dose): 5.00 log
- Log Reduction in Mycobacterial Counts versus Control (no biocide) ([2]; Fluid 3, 48 hours, 50% of recommended maximum dose): 0.00 log
- Log Reduction in Mycobacterial Counts versus Control (no biocide) ([2]; Fluid 3, 48 hours, 100% of recommended maximum dose): 2.00 log
- Log Reduction in Mycobacterial Counts versus Control (no biocide) ([2]; Fluid 4, 48 hours, 50% of recommended maximum dose): 2.00 log
- Log Reduction in Mycobacterial Counts versus Control (no biocide) ([2]; Fluid 4, 48 hours, 100% of recommended maximum dose): 3.64 log
- Log Reduction in Mycobacterial Counts versus Control (no biocide) ([2]; Fluid 5, 48 hours, 50% of recommended maximum dose): 0.06 log
- Log Reduction in Mycobacterial Counts versus Control (no biocide) ([2]; Fluid 5, 48 hours, 100% of recommended maximum dose): 1.90 log
- Log Reduction in Mycobacterial Counts versus Control (no biocide) ([2]; Fluid 6, 48 hours, 50% of recommended maximum dose): 1.78 log
- Log Reduction in Mycobacterial Counts versus Control (no biocide) ([2]; Fluid 6, 48 hours, 100% of recommended maximum dose): 3.88 log
- kill (minimum degree of efficacy) ([2]; in all six samples of contaminated fluids, maximum recommended dose): > 90%
- % Remaining after 2 Days ([3]; H2O2 2 mM, pH 7, 25° C.): 100%
- % Remaining after 8 Days ([3]; H2O2 2 mM, pH 7, 25° C.): 100%
- % Remaining after 2 Days ([3]; H2O2 2 mM, pH 9, 25° C.): 94%
- % Remaining after 8 Days ([3]; H2O2 2 mM, pH 9, 25° C.): 88%
- % Remaining after 2 Days ([3]; IAA 2 mM, pH 7, 25° C.): 100%
- % Remaining after 8 Days ([3]; IAA 2 mM, pH 7, 25° C.): 96%
- % Remaining after 2 Days ([3]; IAA 2 mM, pH 9, 25° C.): 105%
- % Remaining after 8 Days ([3]; IAA 2 mM, pH 9, 25° C.): 103%
- % Remaining after 2 Days [3, 6]: 90%
- % Remaining after 8 Days [3, 6]: 75%
- % Remaining after 2 Days [3, 7]: 93%
- % Remaining after 8 Days [3, 7]: 73%
- % Remaining after 2 Days [3, 8]: 29%
- % Remaining after 8 Days [3, 8]: 26%
- % Remaining after 2 Days [3, 9]: 70%
- % Remaining after 8 Days [3, 9]: 78%
- % Remaining after 2 Days ([3]; no redox agent, pH 7, 25° C.): 100%
- % Remaining after 8 Days ([3]; no redox agent, pH 7, 25° C.): 100%
- % Remaining after 2 Days ([3]; no redox agent, pH 9, 25° C.): 100%
- % Remaining after 8 Days ([3]; no redox agent, pH 9, 25° C.): 100%
- % Remaining after 2 Days ([3]; t-BHP 2 mM, pH 7, 25° C.): 99%
- % Remaining after 8 Days ([3]; t-BHP 2 mM, pH 7, 25° C.): 102%
- % Remaining after 2 Days ([3]; t-BHP 2 mM, pH 9, 25° C.): 98%
- % Remaining after 8 Days ([3]; t-BHP 2 mM, pH 9, 25° C.): 96%
- Minimum Biocidal Concentration [4]: 84 ppm active
- Minimum Biocidal Concentration [5]: 40 ppm active

Source: patent publication US7699995B2, “Water treatment method” (priority 2006, dated 2010)
